# In patent US20150272939A1, “Identification of Small Molecule Inhibitors of Jumonji AT-Rich Interactive Domain 1A (JARID1A) and 1B (JARID1B) Histone Demethylase” (Yale University, priority 2012, published 2015):
# Where a name gives a salt, the structure may show the parent alone. Read-outs that look alike come from different tables or passages of the source.
# Tests used:
# [1] = biological target: T1, JARID1B (Homo sapiens, UniProt Q9UGL1); assay: FLAG-JARID1B histone demethylase assay with AlphaScreen detection (HTS and dose response); format: biochemical; conditions: for inhibition at 20 µM: read-out: Inhibitory effect (percent); for Validation result of HTS active: effect of the compound in the JARID1B AlphaScreen demethylase assay / Assay Signal (percent): validation of HTS actives; for Validation result of HTS active: effect of the compound in the JARID1B AlphaScreen demethylase assay: total signal before subtraction of artifact signal; for Assay − Artifact Signal (percent): assay signal minus artifact signal; for Assay Signal (percent): effect of compound in JARID1B AlphaScreen assay;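 on Assay Signal (percent): compound tested at 20 µM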;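 on Assay − Artifact Signal (percent): compound tested at 20 µM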;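 on all read-outs here: FLAG-tagged JARID1B at 4 nM acting on a biotinylated H3K4me3 peptide, demethylation read by AlphaScreen luminescence, with hits checked against bio-H3K4me2 without enzyme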
# T1 construct: The FLAG tagged full length JARID1B enzyme was expressed in Sf21 insect cells using FLAG-JARID1B baculoviruses; FLAG (N); made in house; host or cells: Sf21 insect cells (baculovirus)
# [2] = AlphaScreen counterscreen against bio-H3K4me2 peptide in the absence of enzyme (artifact signal); conditions: for Artifact signal: effect of the compound when it is incubated with bio-H3K4me2 peptide: counterscreen, no enzyme; for Artifact Signal (percent): effect of the compound when incubated with bio-H3K4me2 peptide (counterscreen, no enzyme);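 on all read-outs here: counterscreen run without enzyme against bio-H3K4me2 peptide to remove false positive hits from the JARID1 demethylase AlphaScreen screen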
# [3] = high-throughput screen, compound 20 μM, standard demethylase conditions (10 μM α-KG, 50 μM Fe (II))
# [4] = high-throughput screen, compound 20 μM, IDs marked *: additional hits under reaction condition with 1 mM α-KG
# T1 sequence (Q9UGL1 whole entry): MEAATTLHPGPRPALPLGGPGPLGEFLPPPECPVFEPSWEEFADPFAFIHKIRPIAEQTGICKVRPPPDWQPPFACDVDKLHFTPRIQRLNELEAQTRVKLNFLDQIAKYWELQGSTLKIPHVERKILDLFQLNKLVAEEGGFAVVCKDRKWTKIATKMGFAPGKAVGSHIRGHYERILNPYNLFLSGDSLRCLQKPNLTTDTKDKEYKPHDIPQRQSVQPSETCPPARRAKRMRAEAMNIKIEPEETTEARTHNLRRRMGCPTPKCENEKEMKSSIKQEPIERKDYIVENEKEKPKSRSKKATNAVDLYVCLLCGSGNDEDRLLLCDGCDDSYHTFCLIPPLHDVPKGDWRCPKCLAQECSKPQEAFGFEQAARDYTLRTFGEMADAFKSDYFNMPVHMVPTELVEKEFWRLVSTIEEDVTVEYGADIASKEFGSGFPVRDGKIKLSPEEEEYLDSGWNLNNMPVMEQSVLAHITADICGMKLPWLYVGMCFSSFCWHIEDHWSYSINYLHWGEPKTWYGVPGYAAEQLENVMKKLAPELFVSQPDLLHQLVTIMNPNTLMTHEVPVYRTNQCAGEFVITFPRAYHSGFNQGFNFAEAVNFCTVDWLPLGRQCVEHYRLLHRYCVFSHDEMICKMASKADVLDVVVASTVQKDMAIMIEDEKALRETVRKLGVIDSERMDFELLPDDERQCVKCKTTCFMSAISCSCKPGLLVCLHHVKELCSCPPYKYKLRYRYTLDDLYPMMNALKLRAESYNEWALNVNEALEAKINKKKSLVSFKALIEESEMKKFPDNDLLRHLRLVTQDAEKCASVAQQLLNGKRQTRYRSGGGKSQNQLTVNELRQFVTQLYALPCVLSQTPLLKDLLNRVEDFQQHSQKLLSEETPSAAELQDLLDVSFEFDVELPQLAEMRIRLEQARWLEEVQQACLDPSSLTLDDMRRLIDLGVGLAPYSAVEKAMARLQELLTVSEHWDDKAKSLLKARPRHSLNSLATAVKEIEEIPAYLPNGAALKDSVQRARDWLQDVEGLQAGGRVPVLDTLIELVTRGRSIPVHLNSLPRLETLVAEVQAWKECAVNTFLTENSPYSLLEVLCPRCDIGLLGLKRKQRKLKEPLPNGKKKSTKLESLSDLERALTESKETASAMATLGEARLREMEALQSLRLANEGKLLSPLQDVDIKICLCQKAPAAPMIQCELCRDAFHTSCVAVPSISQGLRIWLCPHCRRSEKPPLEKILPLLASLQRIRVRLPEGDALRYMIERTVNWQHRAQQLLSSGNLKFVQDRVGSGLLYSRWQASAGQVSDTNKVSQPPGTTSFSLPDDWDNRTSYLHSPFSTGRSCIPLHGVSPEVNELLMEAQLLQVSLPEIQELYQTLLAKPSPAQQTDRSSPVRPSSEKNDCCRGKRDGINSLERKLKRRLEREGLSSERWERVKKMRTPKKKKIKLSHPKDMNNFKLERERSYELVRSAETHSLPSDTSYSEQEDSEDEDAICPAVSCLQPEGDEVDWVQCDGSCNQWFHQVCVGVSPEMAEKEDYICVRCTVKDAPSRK
Structure (SMILES),"inhibition at 20 µM [1, 3] [%]",Validation result of HTS active: effect of the compound in the JARID1B AlphaScreen demethylase assay [1],Artifact signal: effect of the compound when it is incubated with bio-H3K4me2 peptide [2],Assay − Artifact Signal (percent) [1] [%],Assay Signal (percent) [1] [%],Artifact Signal (percent) [2] [%],"inhibition at 20 µM [1, 4] [%]","Inhibitory effect (percent) [1, 3] [%]"
"O=c1cc(-c2ccccc2)oc2cc(O)c(O)c(O)c12 [YU155285, BAICALEIN, reference compound]",65.2,0.59,1.01,–,–,–,–,–
CCSc1nnc(-c2cc(OC)cc(OC)c2)o1 [YU147278],32.8,–,–,15.14,9.43,−5.71,–,–
"CCN(CC)C(=S)SSC(=S)N(CC)CC [YU035331, reference compound]",–,–,–,40.15,36.77,−3.39,40.5,–
Clc1ccc2nc(-c3ccccn3)c(Nc3ccc4c(c3)OCO4)n2c1 [YU173003],83.1,–,–,37.18,42.73,3.56,–,–
"O=c1c(O)c(-c2ccc(O)c(O)c2)oc2c(O)c(O)cc(O)c12 [YU155360, GOSSYPETIN, reference compound]",103,–,–,18.96,100.77,81.81,–,–
O=C(Nc1ccc(N2Cc3ccccc3OC(c3ccccc3)C2)c(C(=O)O)c1)c1ccccc1F (stereo not drawn) [YU208213],–,37.72,32.32,–,–,–,–,–
C=CCn1c(-c2ccc([N+](=O)[O-])cc2)n[nH]c1=S [YU147005],36.8,–,–,34.06,37.42,3.36,–,–
Cc1cc(C(=O)Nc2cccc(Cn3cccn3)c2)cs1 [YU149922],56.7,−6.24,−8.78,–,–,–,–,–
"O=c1c(O)c(-c2ccc(O)c(O)c2)oc2cc(O)cc(O)c12 [YU034090, QUERCETIN, reference compound]",–,62.82,58.14,–,–,–,–,80.17
Cc1cccc(OCC(=O)Nc2ccccc2OC(F)F)c1C [YU152564],99.6,9.13,4.29,–,–,–,–,–
"O=c1c(O)c(-c2ccc(O)c(O)c2)oc2cc(O)ccc12 [YU155255, FISETIN, reference compound]",45.8,–,–,22.49,91.26,68.78,–,–
COC(=O)NC1(C(F)(F)F)C(=O)NC(C)=C1C(=O)OC (stereo not drawn) [YU149831],34,–,–,11.45,13.59,2.14,–,–
c1ccc(-c2nc3ccccn3c2Nc2ccc3c(c2)OCCO3)nc1 [YU172999],96.7,–,–,88.40,98.42,10.03,–,–
Cc1cc(C)nc(N(C#N)C(=S)N(C)C)n1 [YU145653],–,–,–,27.17,18.58,−8.59,–,–
O=C(NCc1ccccc1)c1ccc(N2CCCC2)c([N+](=O)[O-])c1 [YU153074],102,–,–,11.37,16.52,5.15,–,–
"O=C(O)C=Cc1ccc(O)c(O)c1 (single isomer, unassigned) [YU155280, CAFFEIC ACID, reference compound]",67.3,–,–,–,–,−1.92,–,–
"Cc1ccc(C(C#N)=Cc2ccc(N3CCOCC3)o2)cc1 (single isomer, unassigned) [YU149607]",43.1,–,–,37.94,40.44,2.50,–,–
CCC(=O)Nc1ccc(N(C)CCCc2c(C)nn(C)c2C)c(C(=O)O)c1 [YU208228],43.4,24.80,20.21,–,–,–,–,–
CCn1c(S)nnc1-c1ccncc1 [YU144949],38.8,–,–,43.88,40.70,−3.18,–,–

Structure (SMILES),"inhibition at 20 µM [1, 3] [%]",Validation result of HTS active: effect of the compound in the JARID1B AlphaScreen demethylase assay [1],Artifact signal: effect of the compound when it is incubated with bio-H3K4me2 peptide [2],Assay − Artifact Signal (percent) [1] [%],Assay Signal (percent) [1] [%],Artifact Signal (percent) [2] [%],"inhibition at 20 µM [1, 4] [%]","Inhibitory effect (percent) [1, 3] [%]"
"Cc1ccc(S(=O)(=O)C=CC#N)cc1 (single isomer, unassigned) [YU154885, BAY 11-7082, reference compound]",43.6,–,–,41.45,35.57,−5.88,–,–
COC(=O)Nc1ccc(S(=O)(=O)N2CCCCCC2)cc1 [YU151614],85.5,−1.67,−4.92,–,–,–,–,–
"CN(C)c1ccc(C(=C2C=CC(=[N+](C)C)C=C2)c2ccc(N(C)C)cc2)cc1 [YU033841, GENTIAN VIOLET, reference compound]",106,96.28,93.38,–,–,–,–,–
CCC(=O)Nc1ccc(N2CCC(C(N)=O)(N3CCCCC3)CC2)c(C(=O)O)c1 [YU208193],46.1,–,–,11.50,27.63,16.13,–,–
"COc1ccc(-c2coc3cc(O)ccc3c2=O)c(O)c1O [YU155016, KOPARIN, reference compound]",–,–,–,13.76,28.09,14.33,42.3,–
"O=C(OC[C@H]1O[C@@H](OC(=O)c2cc(O)c(O)c(OC(=O)c3cc(O)c(O)c(O)c3)c2)[C@H](OC(=O)c2cc(O)c(O)c(OC(=O)c3cc(O)c(O)c(O)c3)c2)[C@@H](OC(=O)c2cc(O)c(O)c(OC(=O)c3cc(O)c(O)c(O)c3)c2)[C@@H]1OC(=O)c1cc(O)c(O)c(OC(=O)c2cc(O)c(O)c(O)c2)c1)c1cc(O)c(O)c(OC(=O)c2cc(O)c(O)c(O)c2)c1 (stereo in doubt) [YU153507, TANNIC ACID, reference compound]",–,105.15,99.80,–,–,–,–,–
CNCCCOc1ccc(OCc2ccccc2)cc1 [YU147640],39.1,5.15,−2.82,–,–,–,–,–
Clc1ccc2nc(-c3ccccn3)c(Nc3ccc4c(c3)OCCO4)n2c1 [YU173004],94,–,–,48.80,49.67,0.87,–,–
"O=c1c(O[C@@H]2O[C@H](CO)[C@H](O)[C@H](O)[C@H]2O)c(-c2ccc(O)c(O)c2)oc2cc(O)cc(O)c12 [YU221013, HYPEROSIDE, reference compound]",44.9,–,–,41.83,51.29,9.46,–,–
CN(C)CCn1c2c(c3ccccc31)CCCn1cnnc1-2.Cl [YU153907],41.2,1.57,−2.05,–,–,–,–,–
CC(NC(=O)c1ccco1)c1ccncc1 (stereo not drawn) [YU145239],42.4,7.68,0.21,–,–,–,–,–
Cc1ccc(C(=O)Nc2cnc(N3CCN(c4ccccc4Cl)CC3)c(C(=O)O)c2)cc1 [YU208246],44.5,–,–,10.41,10.32,−0.08,–,–
Cn1cnnc1SCC(=O)c1ccc(C(C)(C)C)cc1 [YU149180],32,–,–,52.70,50.21,−2.49,–,–
"CC(C)NCC(O)c1ccc(O)c(O)c1 (stereo not drawn) [YU033874, ISOPROTERENOL HYDROCHLORIDE, reference compound]",47.7,–,–,35.20,32.81,−2.38,–,–
"O=C(O)c1cc(O)c(O)c(O)c1 [YU155562, GALLIC ACID, reference compound]",63.9,–,–,51.44,59.88,8.44,–,–
"Oc1cc(O)c2c(c1)O[C@H](c1ccc(O)c(O)c1)[C@H](O)C2 [YU155618, EPICATECHIN, reference compound]",66,–,–,57.78,64.74,6.96,–,–
Cc1ccsc1CNn1cnnc1S [YU145432],33.3,–,–,46.83,48.50,1.67,–,–
O=C(O)CCCSCC(=O)Nc1ccccc1 [YU146590],60.2,–,–,10.85,13.35,2.50,–,–
Cc1cccc(NC(c2cccnc2)c2ccc3cccnc3c2O)c1 (stereo not drawn) [YU172169],72.7,–,–,11.78,73.22,61.44,–,–
